Measured values taken from the supplement of paper PMC10307832.

How the values were obtained:
Test in all cases: relative viability (nuclei count vs DMSO), 5 days (fraction); higher = more cells survive
TPCA-1 + Olaparib = compound: C1=CC(=CC=C1C2=CC(=C(S2)NC(=O)N)C(=O)N)F [TPCA-1] + O=C(c1cc(Cc2n[nH]c(=O)c3ccccc23)ccc1F)N1CCN(C(=O)C2CC2)CC1 [Olaparib] (partner 8 µM)
Procedure, shortened: (§1)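 One day after seeding in 1536-well plates, lung cancer cell lines were dosed by pin tool. Dosing was either single-drug or a fixed anchor-drug dose plus five library-drug doses (not always all listed) in √10 steps. After 5 days, nuclei were stained in one fix-and-stain step and counted on 4× images, and relative viability is the nuclei count of treated wells over that of vehicle wells, given as the median of duplicate plates.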

[1] = compound: C[C@]12O[C@H](C[C@]1(O)CO)n1c3ccccc3c3c4c(c5c6ccccc6n2c5c31)CNC4=O [Lestaurtinib] + Nc1ncn([C@H]2C[C@H](O)[C@@H](CO)O2)c(=O)n1 [Decitabine] (partner 2 µM)
Procedure, shortened: as §1

Lestaurtinib + Lapatinib = compound: C[C@]12O[C@H](C[C@]1(O)CO)n1c3ccccc3c3c4c(c5c6ccccc6n2c5c31)CNC4=O [Lestaurtinib] + CS(=O)(=O)CCNCc1ccc(-c2ccc3ncnc(Nc4ccc(OCc5cccc(F)c5)c(Cl)c4)c3c2)o1 [Lapatinib] (partner 2 µM)
Procedure, shortened: as §1

TPCA-1 + Luminespib = compound: C1=CC(=CC=C1C2=CC(=C(S2)NC(=O)N)C(=O)N)F [TPCA-1] + CCNC(=O)c1noc(-c2cc(C(C)C)c(O)cc2O)c1-c1ccc(CN2CCOCC2)cc1 [Luminespib] (partner 0.01 µM)
Procedure, shortened: as §1

Cell Line | relative viability (TPCA-1 + Olaparib; first compound 0.04 µM) | relative viability (TPCA-1 + Olaparib; first compound 0.1265 µM) | relative viability (TPCA-1 + Olaparib; first compound 0.4 µM) | relative viability (TPCA-1 + Olaparib; first compound 1.265 µM) | relative viability (TPCA-1 + Olaparib; first compound 4 µM) | relative viability ([1]; first compound 0.005 µM) | relative viability ([1]; first compound 0.01581 µM) | relative viability ([1]; first compound 0.05 µM) | relative viability ([1]; first compound 0.1581 µM) | relative viability ([1]; first compound 0.5 µM) | relative viability (Lestaurtinib + Lapatinib; first compound 0.005 µM) | relative viability (Lestaurtinib + Lapatinib; first compound 0.01581 µM) | relative viability (Lestaurtinib + Lapatinib; first compound 0.05 µM) | relative viability (Lestaurtinib + Lapatinib; first compound 0.1581 µM) | relative viability (Lestaurtinib + Lapatinib; first compound 0.5 µM) | relative viability (TPCA-1 + Luminespib; first compound 0.04 µM) | relative viability (TPCA-1 + Luminespib; first compound 0.1265 µM) | relative viability (TPCA-1 + Luminespib; first compound 0.4 µM) | relative viability (TPCA-1 + Luminespib; first compound 1.265 µM) | relative viability (TPCA-1 + Luminespib; first compound 4 µM)
LXF-289 | 1.09 | 0.94 | 1.12 | 1.06 | 0.735 | 0.312 | 0.428 | 0.374 | 0.364 | 0.315 | 0.867 | 0.917 | 0.713 | 0.769 | 0.375 | 0.787 | 0.649 | 0.748 | 0.703 | 0.596
NCI-H23 | 0.317 | 0.234 | 0.285 | 0.353 | 0.192 | 0.349 | 0.315 | 0.339 | 0.295 | 0.228 | 1.21 | 1.19 | 0.776 | 0.888 | 0.212 | 0.199 | 0.208 | 0.219 | 0.196 | 0.193
NCI-H322M | 0.78 | 0.785 | 0.77 | 0.73 | 0.41 | 0.755 | 0.784 | – | 0.647 | 0.756 | 0.555 | 0.567 | 0.416 | 0.424 | 0.525 | 1 | 0.812 | 0.984 | 1.01 | 0.366
NCI-H358 | 0.619 | 0.48 | 0.646 | 0.546 | 0.32 | 0.219 | 0.212 | 0.15 | 0.12 | 0.144 | 0.466 | 0.423 | 0.374 | 0.268 | 0.279 | 0.286 | 0.366 | 0.279 | 0.266 | 0.125
NCI-H460 | 0.475 | 0.465 | 0.463 | 0.392 | 0.278 | 0.639 | 0.519 | 0.499 | 0.548 | 0.305 | 0.869 | 1.33 | 0.23 | 0.415 | 0.0473 | 0.0339 | 0.0348 | 0.0261 | 0.0343 | 0.0263
NCI-H520 | 0.409 | 0.353 | 0.391 | 0.373 | 0.344 | 0.62 | 0.59 | 0.502 | 0.327 | 0.247 | 0.833 | 1 | 0.59 | 0.48 | 0.252 | 0.197 | 0.215 | 0.203 | 0.246 | 0.213
NCI-H596 | 0.722 | 0.674 | 0.671 | 0.828 | 0.479 | 1.04 | 1.55 | 0.936 | 1.26 | 1.07 | 1.22 | 1.03 | 0.973 | 1.26 | 0.843 | 0.988 | 1.08 | 0.897 | 1.11 | 1.08
NCI-H647 | 0.763 | 0.437 | 0.66 | 0.525 | 0.358 | 0.415 | 0.404 | 0.337 | 0.311 | 0.173 | 0.837 | 0.735 | 0.217 | 0.146 | 0.114 | 0.149 | 0.192 | 0.157 | 0.102 | 0.134
NCI-H650 | 0.4 | 0.323 | 0.408 | 0.385 | 0.354 | 0.332 | 0.362 | 0.353 | 0.335 | 0.326 | 0.732 | 1.22 | 0.455 | 0.421 | 0.26 | 0.858 | 0.788 | 0.849 | 0.499 | 0.328
NCI-H661 | 0.751 | 0.748 | 0.77 | 0.721 | 0.758 | 0.552 | 0.59 | 0.52 | 0.502 | 0.33 | 0.466 | 0.608 | 0.444 | 0.444 | 0.323 | 0.973 | 0.934 | 0.962 | 0.846 | 0.806
NCI-H727 | 0.86 | 0.69 | 0.666 | 0.57 | 0.534 | 0.957 | 0.87 | 0.882 | – | 0.579 | 1.21 | 0.986 | 0.78 | 0.813 | 0.263 | 0.531 | 0.453 | 0.439 | 0.487 | 0.432
NCI-H838 | 0.867 | 0.718 | 0.826 | 0.557 | 0.406 | 0.508 | 0.559 | 0.501 | 0.399 | 0.161 | 1.04 | 0.998 | 0.664 | 0.451 | 0.132 | 0.349 | 0.398 | 0.235 | 0.268 | 0.223
NCI-H1355 | 0.8 | 0.633 | 0.796 | 0.694 | 0.396 | 0.389 | 0.349 | 0.329 | 0.311 | 0.344 | 1.06 | 1.03 | 0.942 | 0.732 | 0.658 | 0.788 | 0.747 | 0.841 | 0.715 | 0.465
NCI-H1395 | 0.496 | 0.426 | 0.494 | 0.519 | 0.494 | 0.778 | 0.765 | 0.774 | 0.684 | 0.453 | 1.15 | 1.26 | 0.848 | 0.853 | 0.416 | 0.762 | 0.695 | 0.647 | 0.709 | 0.644
NCI-H1437 | 0.665 | 0.637 | 0.611 | 0.591 | 0.618 | 0.546 | 0.649 | 0.645 | 0.626 | 0.636 | 0.775 | 0.866 | 0.529 | 0.414 | 0.114 | 1.04 | 1.14 | 1.03 | 1.12 | 1.2
NCI-H1650 | 0.893 | 0.826 | 0.758 | 0.822 | 0.863 | 0.441 | 0.623 | 0.457 | 0.506 | 0.54 | 0.987 | 0.95 | 0.817 | 0.512 | 0.157 | 0.225 | – | 0.188 | 0.185 | 0.197
